The values that follow come from publication PMC4300089, “Structure-Guided Design of Selective Epac1 and Epac2 Agonists” (PLoS Biology, 2015).

SMILES strings stand for the structures.

The first assay addresses T1, Epac2^Δ280 (Mus musculus, UniProt Q9EQZ6).
T1 construct: made in house
T1 sequence (Q9EQZ6 281-993 isoform Q9EQZ6-3): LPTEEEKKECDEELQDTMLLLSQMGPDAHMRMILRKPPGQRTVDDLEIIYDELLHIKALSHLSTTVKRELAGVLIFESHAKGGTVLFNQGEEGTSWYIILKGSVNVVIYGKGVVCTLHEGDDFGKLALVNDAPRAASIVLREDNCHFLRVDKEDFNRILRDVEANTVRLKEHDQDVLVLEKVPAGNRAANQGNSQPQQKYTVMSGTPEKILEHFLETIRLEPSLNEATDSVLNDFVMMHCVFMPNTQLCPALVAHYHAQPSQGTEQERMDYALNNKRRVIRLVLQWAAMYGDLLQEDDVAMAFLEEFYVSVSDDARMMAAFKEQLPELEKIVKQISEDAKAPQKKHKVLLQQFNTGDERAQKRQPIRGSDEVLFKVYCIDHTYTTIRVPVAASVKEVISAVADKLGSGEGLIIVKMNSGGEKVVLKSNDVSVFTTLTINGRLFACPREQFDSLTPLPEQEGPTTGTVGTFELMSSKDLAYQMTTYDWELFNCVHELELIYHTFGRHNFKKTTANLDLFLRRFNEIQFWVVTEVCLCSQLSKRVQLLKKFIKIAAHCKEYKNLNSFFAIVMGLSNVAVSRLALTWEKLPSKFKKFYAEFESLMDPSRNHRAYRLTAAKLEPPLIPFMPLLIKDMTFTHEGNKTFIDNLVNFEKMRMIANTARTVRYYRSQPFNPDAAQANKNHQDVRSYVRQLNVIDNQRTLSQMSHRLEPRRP
Description: Epac activation assay (Rap1B•mGDP fluorescence nucleotide exchange), Epac2^Δ280. The assay is classed as biochemical. The note with it: Epac2^Δ280. As to the method:
Murine Epac2 was used as all previous structural studies were performed with it.
The activity of Epac was determined by a fluorescence assay. […] The fluorescence intensity of Rap1B•mGDP is approximately twice that of free mGDP, and thus, nucleotide exchange can be observed as a decay in fluorescence upon the addition of excess unlabeled GDP.
`Nc1ncnc2c1ncn2[C@@H]1O[C@@H]2COP(=O)(O)O[C@H]2[C@H]1N` [Z-003, 2′-NH2-cAMP]: the AC50 (in general, the concentration giving half of the maximal activity seen) stood at 9 µM.
On the same count and under the same terms, with `Nc1ncnc2c1nc(SCc1ccccc1)n2[C@H]1C[C@@H]2O[P@@](O)(=S)OC[C@H]2O1` [S-221, Sp-8-BnT-2′-dcAMPS] the figure was 10 µM; with `Nc1ncnc2c1nc(O)n2[C@@H]1O[C@@H]2CO[P@](O)(=S)O[C@H]2[C@H]1O` [S-130, Sp-8-OH-cAMPS], 1.3 µM; with `CO[C@H]1C2OP(=O)(O)OC[C@H]2O[C@H]1n1c(Br)nc2c(N)ncnc21` (stereo partly drawn) [D-005, 8-Br-2′-O-Me-cAMP], 8 µM.
Molecule `Nc1ncnc2c1nc(Br)n2[C@@H]1O[C@@H]2COP(=O)(O)O[C@H]2[C@H]1Cl` [D-003, 8-Br-2′-Cl-cAMP] came in with a concentration at half-maximal activity (AC50) of 11 µM.
On the same count and under the same terms, for `Nc1ncnc2c1nc(Cl)n2[C@@H]1O[C@@H]2COP(=O)(O)O[C@H]2[C@H]1O` [L-001, 8-Cl-cAMP] the value was 0.3 µM; for `CO[C@@H]1[C@@H]2OP(=O)(O)OC[C@H]2O[C@H]1n1c(Sc2ccc(O)cc2)nc2c(N)ncnc21` [D-008, 8-pOHPT-2′-O-Me-cAMP], 1.5 µM; for `CNc1nc2c(N)ncnc2n1[C@@H]1O[C@@H]2CO[P@](O)(=S)O[C@H]2[C@H]1Cl` [S-033, Sp-8-MeA-2′-Cl-cAMPS], 14 µM.
Consider `Nc1ncnc2c1nc(N1CCCCC1)n2[C@@H]1O[C@@H]2COP(=O)(O)O[C@H]2[C@H]1O` [L-018, 8-PIP-cAMP], for which the AC50 amounted to 13 µM.
The same measure, in the same setting: with `Nc1ncnc2c1nc(NCc1ccccc1)n2[C@@H]1O[C@@H]2COP(=O)(O)O[C@H]2[C@H]1O` [L-014, 8-BnA-cAMP] the figure was 1.9 µM.

Staying with this assay, now noted: Epac2^Δ280; maximal activity relative to cAMP.
In the case of `Nc1ncnc2c1ncn2[C@@H]1O[C@@H]2COP(=O)(O)O[C@H]2[C@H]1N` [Z-003, 2′-NH2-cAMP], the Rel. kmax turned out to be 0.9.
On the same count and under the same terms, for `Nc1ncnc2c1nc(SCc1ccccc1)n2[C@H]1C[C@@H]2O[P@@](O)(=S)OC[C@H]2O1` [S-221, Sp-8-BnT-2′-dcAMPS] the value was 1.5.
In turn, `Nc1ncnc2c1nc(O)n2[C@@H]1O[C@@H]2CO[P@](O)(=S)O[C@H]2[C@H]1O` [S-130, Sp-8-OH-cAMPS] displayed a Rel. kmax of 1.4.
Still for that read-out and setting: with `CO[C@H]1C2OP(=O)(O)OC[C@H]2O[C@H]1n1c(Br)nc2c(N)ncnc21` (stereo partly drawn) [D-005, 8-Br-2′-O-Me-cAMP] the figure was 1.6; with `Nc1ncnc2c1nc(Br)n2[C@@H]1O[C@@H]2COP(=O)(O)O[C@H]2[C@H]1Cl` [D-003, 8-Br-2′-Cl-cAMP], 0.9; with `Nc1ncnc2c1nc(Cl)n2[C@@H]1O[C@@H]2COP(=O)(O)O[C@H]2[C@H]1O` [L-001, 8-Cl-cAMP], 0.8.
The molecule `CO[C@@H]1[C@@H]2OP(=O)(O)OC[C@H]2O[C@H]1n1c(Sc2ccc(O)cc2)nc2c(N)ncnc21` [D-008, 8-pOHPT-2′-O-Me-cAMP] returned a Rel. kmax of 2.2.
Still for that read-out and setting: for `CNc1nc2c(N)ncnc2n1[C@@H]1O[C@@H]2CO[P@](O)(=S)O[C@H]2[C@H]1Cl` [S-033, Sp-8-MeA-2′-Cl-cAMPS] the value was 0.7; for `Nc1ncnc2c1nc(N1CCCCC1)n2[C@@H]1O[C@@H]2COP(=O)(O)O[C@H]2[C@H]1O` [L-018, 8-PIP-cAMP], 3.8; for `Nc1ncnc2c1nc(NCc1ccccc1)n2[C@@H]1O[C@@H]2COP(=O)(O)O[C@H]2[C@H]1O` [L-014, 8-BnA-cAMP], 1.5.

The next assay deals with T2, Epac1 (Homo sapiens, UniProt O95398).
T2 construct: made in house
T2 sequence (O95398 150-881 isoform O95398-3): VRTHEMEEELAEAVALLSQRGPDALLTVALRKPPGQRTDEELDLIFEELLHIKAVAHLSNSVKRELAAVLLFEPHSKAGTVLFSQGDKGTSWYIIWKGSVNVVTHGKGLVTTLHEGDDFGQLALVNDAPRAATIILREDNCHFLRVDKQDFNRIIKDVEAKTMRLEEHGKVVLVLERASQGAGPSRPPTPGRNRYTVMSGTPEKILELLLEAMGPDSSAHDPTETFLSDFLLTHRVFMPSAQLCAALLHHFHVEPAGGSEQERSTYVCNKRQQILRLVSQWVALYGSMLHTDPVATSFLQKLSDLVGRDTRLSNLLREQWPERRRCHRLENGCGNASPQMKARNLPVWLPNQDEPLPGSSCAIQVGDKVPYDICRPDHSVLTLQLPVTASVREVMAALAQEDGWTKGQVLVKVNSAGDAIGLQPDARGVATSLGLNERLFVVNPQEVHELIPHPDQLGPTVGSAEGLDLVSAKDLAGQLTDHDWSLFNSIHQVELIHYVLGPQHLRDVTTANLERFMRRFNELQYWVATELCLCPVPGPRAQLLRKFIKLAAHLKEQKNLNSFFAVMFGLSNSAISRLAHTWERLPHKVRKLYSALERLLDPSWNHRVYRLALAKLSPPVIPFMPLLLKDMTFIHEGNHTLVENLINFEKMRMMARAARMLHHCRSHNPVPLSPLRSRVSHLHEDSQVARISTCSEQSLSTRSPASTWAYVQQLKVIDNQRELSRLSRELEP
Test: not given
More on the design: method as in PMID 12888551. The settings on record: footnote c, see also ref 13; cited from earlier work.
In the case of `Nc1ncnc2c1nc(Cl)n2[C@@H]1O[C@@H]2COP(=O)(O)O[C@H]2[C@H]1O` [L-001, 8-Cl-cAMP], the concentration at half-maximal activity (AC50) is 6.9 µM and the Rel. kmax is given as 0.5^c.
As to `Nc1ncnc2c1nc(N1CCCCC1)n2[C@@H]1O[C@@H]2COP(=O)(O)O[C@H]2[C@H]1O` [L-018, 8-PIP-cAMP], the AC50 was 130 µM and the Rel. kmax is reported as 0.9^c.

The target of a further assay is T2, Epac1. The assay can be described thus: Epac activation assay, Epac1. It is filed as biochemical. The note with it: Epac1.
Molecule `Nc1ncnc2c1ncn2[C@@H]1O[C@@H]2COP(=O)(O)O[C@H]2[C@H]1N` [Z-003, 2′-NH2-cAMP] yielded an AC50 of 80 µM.
The molecule `Nc1ncnc2c1nc(SCc1ccccc1)n2[C@H]1C[C@@H]2O[P@@](O)(=S)OC[C@H]2O1` [S-221, Sp-8-BnT-2′-dcAMPS] displayed an AC50 of 280 µM.
In the case of `Nc1ncnc2c1nc(O)n2[C@@H]1O[C@@H]2CO[P@](O)(=S)O[C@H]2[C@H]1O` [S-130, Sp-8-OH-cAMPS], the AC50 came out at 80 µM.
On the same count and under the same terms, for `CO[C@H]1C2OP(=O)(O)OC[C@H]2O[C@H]1n1c(Br)nc2c(N)ncnc21` (stereo partly drawn) [D-005, 8-Br-2′-O-Me-cAMP] the value was 35 µM; for `Nc1ncnc2c1nc(Br)n2[C@@H]1O[C@@H]2COP(=O)(O)O[C@H]2[C@H]1Cl` [D-003, 8-Br-2′-Cl-cAMP], 260 µM.
On to `CO[C@@H]1[C@@H]2OP(=O)(O)OC[C@H]2O[C@H]1n1c(Sc2ccc(O)cc2)nc2c(N)ncnc21` [D-008, 8-pOHPT-2′-O-Me-cAMP], for which the AC50 came out at 1 µM.
Same read-out and setting: for `CNc1nc2c(N)ncnc2n1[C@@H]1O[C@@H]2CO[P@](O)(=S)O[C@H]2[C@H]1Cl` [S-033, Sp-8-MeA-2′-Cl-cAMPS] the value was 120 µM; for `Nc1ncnc2c1nc(NCc1ccccc1)n2[C@@H]1O[C@@H]2COP(=O)(O)O[C@H]2[C@H]1O` [L-014, 8-BnA-cAMP], 30 µM.

The same assay, now with this note: Epac1; maximal activity relative to cAMP.
The molecule `Nc1ncnc2c1ncn2[C@@H]1O[C@@H]2COP(=O)(O)O[C@H]2[C@H]1N` [Z-003, 2′-NH2-cAMP] showed a Rel. kmax of 0.8.
Take `Nc1ncnc2c1nc(SCc1ccccc1)n2[C@H]1C[C@@H]2O[P@@](O)(=S)OC[C@H]2O1` [S-221, Sp-8-BnT-2′-dcAMPS]: the Rel. kmax was 0.06.
The same measure, in the same setting: with `Nc1ncnc2c1nc(O)n2[C@@H]1O[C@@H]2CO[P@](O)(=S)O[C@H]2[C@H]1O` [S-130, Sp-8-OH-cAMPS] the figure was 0.6; with `CO[C@H]1C2OP(=O)(O)OC[C@H]2O[C@H]1n1c(Br)nc2c(N)ncnc21` (stereo partly drawn) [D-005, 8-Br-2′-O-Me-cAMP], 0.9.
With `Nc1ncnc2c1nc(Br)n2[C@@H]1O[C@@H]2COP(=O)(O)O[C@H]2[C@H]1Cl` [D-003, 8-Br-2′-Cl-cAMP], the Rel. kmax was ~0.5?.
`CO[C@@H]1[C@@H]2OP(=O)(O)OC[C@H]2O[C@H]1n1c(Sc2ccc(O)cc2)nc2c(N)ncnc21` [D-008, 8-pOHPT-2′-O-Me-cAMP] had a Rel. kmax of 3.1.
Regarding `CNc1nc2c(N)ncnc2n1[C@@H]1O[C@@H]2CO[P@](O)(=S)O[C@H]2[C@H]1Cl` [S-033, Sp-8-MeA-2′-Cl-cAMPS], the Rel. kmax was determined as 0.1.
On the same count and under the same terms, for `Nc1ncnc2c1nc(NCc1ccccc1)n2[C@@H]1O[C@@H]2COP(=O)(O)O[C@H]2[C@H]1O` [L-014, 8-BnA-cAMP] the value was 0.2.
